Assay results as given in patent US11242337B2, “Compounds useful for treating gastrointestinal tract disorders” (Ardelyx, Inc., priority 2017, dated 2022).

Legend:
NHE3 [1] = biological target: T1, NHE3 (Homo sapiens, UniProt P48764); assay: Cell-based assay of NHE-3 activity (persistent inhibition), human; conditions: human Persistence, 60 min incubation then washout
T1 construct: expressed in transfected cells
T1 sequence (P48764 26-834): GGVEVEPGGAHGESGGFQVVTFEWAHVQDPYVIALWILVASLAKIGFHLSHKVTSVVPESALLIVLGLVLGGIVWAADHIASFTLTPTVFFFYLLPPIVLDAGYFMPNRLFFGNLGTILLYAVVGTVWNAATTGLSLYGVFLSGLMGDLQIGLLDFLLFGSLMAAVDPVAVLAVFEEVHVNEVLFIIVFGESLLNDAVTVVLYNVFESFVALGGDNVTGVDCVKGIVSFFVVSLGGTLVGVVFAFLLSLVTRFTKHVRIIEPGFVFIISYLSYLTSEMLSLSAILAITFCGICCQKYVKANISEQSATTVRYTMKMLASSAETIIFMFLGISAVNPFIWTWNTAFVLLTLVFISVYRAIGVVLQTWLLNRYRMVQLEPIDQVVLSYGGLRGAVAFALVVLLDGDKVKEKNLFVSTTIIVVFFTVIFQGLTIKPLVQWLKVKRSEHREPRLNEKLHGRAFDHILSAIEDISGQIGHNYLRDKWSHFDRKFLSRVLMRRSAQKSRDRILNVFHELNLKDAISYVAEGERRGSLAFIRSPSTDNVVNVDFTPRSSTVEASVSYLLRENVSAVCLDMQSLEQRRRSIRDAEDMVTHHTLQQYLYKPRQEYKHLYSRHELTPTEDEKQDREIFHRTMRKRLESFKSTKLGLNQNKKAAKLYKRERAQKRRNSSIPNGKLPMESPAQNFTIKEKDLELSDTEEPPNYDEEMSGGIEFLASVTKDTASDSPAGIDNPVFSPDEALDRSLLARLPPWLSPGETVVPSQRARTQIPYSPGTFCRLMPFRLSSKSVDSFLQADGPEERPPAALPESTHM
T1 sequence (Q99653 2-195 partner limits assumed): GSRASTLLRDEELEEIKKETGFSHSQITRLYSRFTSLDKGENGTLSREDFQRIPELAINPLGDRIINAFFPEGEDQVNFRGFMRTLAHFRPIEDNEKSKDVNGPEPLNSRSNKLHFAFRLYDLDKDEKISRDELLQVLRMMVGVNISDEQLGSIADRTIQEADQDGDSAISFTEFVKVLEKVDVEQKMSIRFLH
Method in brief: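 Persistent inhibition: compound (0-30 μM, 60 min, RT, NaCl-HEPES pH 7.4) removed before assay. Human NHE3/NHERF2 PS120 cells were then BCECF-loaded during NH4Cl pulse (30 min, 37 °C), acidified in Na+-free buffer, and Na+ added 10 min after washout; antiport measured as initial fluorescence-ratio change per minute.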

NHE3 [2] = biological target: T1, NHE3; assay: Cell-based assay of NHE-3 activity (pre-incubation inhibition), human; conditions: human Preincubation; for pIC50 / IC50: 0-30 μM test compound
Method in brief: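 Activity read as initial rate of BCECF fluorescence ratio change per minute (ex 439/505, em 538 nm) following NH4Cl prepulse acid loading. Compound (0–30 μM) present during 10 min Na+-free acidification at room temperature; cells were PS120 fibroblasts stably co-expressing human NHE3 and NHERF2.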

Cc1cc(S(=O)(=O)NCCOCCOCCNC(=O)NCCCCNC(=O)NCCOCCOCCNS(=O)(=O)c2cc(C)c(O[C@H]3c4cc(Cl)cc(Cl)c4C[C@@H]3N3CCC[C@@H](N)C3)cc2C)c(C)cc1O[C@H]1c2cc(Cl)cc(Cl)c2C[C@@H]1N1CCC[C@@H](N)C1 [Example 81, 3-[2-(2-[2-[(4-[[(1S,2S)-2-[(3R)-3-Aminopiperidin-1-yl]-4,6-dichloro-2,3-dihydro-1H-inden-1-yl]oxy]-2,5-dimethylbenzene)sulfonamido]ethoxy]ethoxy)ethyl]-1-[4-([[2-(2-[2-[(4-[[(1S,2S)-2-[(3R)-3-aminopiperidin-1-yl]-4,6-dichloro-2,3-dihydro-1H-inden-1-yl]oxy]-2,5-dimethylbenzene)sulfonamido]ethoxy]ethoxy)ethyl]carbamoyl]amino)butyl]urea]
% inhibition (NHE3 [1]): C (>70%) | IC50 (NHE3 [1]): 100 to 1000 nM | % inhibition (NHE3 [2]): C (>70%) | pIC50 (NHE3 [2]): C (NHE3 pIC50 > 7)

CC(=O)N1CCN([C@H]2Cc3c(Cl)cc(Cl)cc3[C@@H]2Oc2ccc(S(=O)(=O)NCCOCCOCCNC(=O)NCCCCNC(=O)NCCOCCOCCNS(=O)(=O)c3ccc(O[C@H]4c5cc(Cl)cc(Cl)c5C[C@@H]4N4CCN(C(C)=O)CC4)c(C)c3)cc2C)CC1 [Example 75, 3-[2-(2-[2-[(4-[[(1S,2S)-2-(4-Acetylpiperazin-1-yl)-4,6-dichloro-2,3-dihydro-1H-inden-1-yl]oxy]-3-methylbenzene)sulfonamido]ethoxy]ethoxy)ethyl]-1-[4-([[2-(2-[2-[(4-[[(1S,2S)-2-(4-acetylpiperazin-1-yl)-4,6-dichloro-2,3-dihydro-1H-inden-1-yl]oxy]-3-methylbenzene)sulfonamido]ethoxy]ethoxy)ethyl]carbamoyl]amino)butyl]urea; bis(trifluoroacetic acid)]
% inhibition (NHE3 [1]): A (NHE3 < 40%) | % inhibition (NHE3 [2]): B (40-70%) | IC50 (NHE3 [2]): 100 to 1000 nM

N#Cc1cc(Cl)cc2c1C[C@H](N1C[C@@H]3C[C@H]1CN3)[C@H]2Oc1ccc(S(=O)(=O)N[C@@H]2CCN(CCOCCNC(=O)NCCCCNC(=O)NCCOCCN3CC[C@@H](NS(=O)(=O)c4ccc(O[C@H]5c6cc(Cl)cc(C#N)c6C[C@@H]5N5C[C@@H]6C[C@H]5CN6)cc4)C3)C2)cc1 [Example 131, 4-([(1S,2S)-2-[(1S,4S)-2,5-Diazabicyclo[2.2.1]heptan-2-yl]-6-chloro-4-cyano-2,3-dihydro-1H-inden-1-yl]oxy)-N—[(R)-1-(20-[(R)-3-([4-([(1S,2S)-2-[(1S,4S)-2,5-diazabicyclo[2.2.1]heptan-2-yl]-6-chloro-4-cyano-2,3-dihydro-1H-inden-1-yl]oxy)phenyl]sulfonamido)pyrrolidin-1-yl]-7,14-dioxo-3,18-dioxa-6,8,13,15-tetraazaicosyl)pyrrolidin-3-yl]benzenesulfonamide; bis(trifluoroacetic acid)]
% inhibition (NHE3 [1]): C (>70%) | IC50 (NHE3 [1]): 100 to 1000 nM | % inhibition (NHE3 [2]): C (>70%) | pIC50 (NHE3 [2]): C (NHE3 pIC50 > 7)

Cc1cc(S(=O)(=O)N2CC[C@H](COc3ccnc(CNC(=O)NCCCCNC(=O)NCc4cc(OC[C@H]5CCN(S(=O)(=O)c6ccc(O[C@H]7c8cc(Cl)cc(Cl)c8C[C@@H]7N(C)C)c(C)c6)C5)ccn4)c3)C2)ccc1O[C@H]1c2cc(Cl)cc(Cl)c2C[C@@H]1N(C)C [Example 48, 3-[(4-[[(3S)-1-[(4-[[(1S,2S)-4,6-Dichloro-2-(dimethylamino)-2,3-dihydro-1H-inden-1-yl]oxy]-3-methylbenzene)sulfonyl]pyrrolidin-3-yl]methoxy]pyridin-2-yl)methyl]-1-[4-([[(4-[[(3S)-1-[(4-[[(1S,2S)-4,6-dichloro-2-(dimethylamino)-2,3-dihydro-1H-inden-1-yl]oxy]-3-methylbenzene)sulfonyl]pyrrolidin-3-yl]methoxy]pyridin-2-yl)methyl]carbamoyl]amino)butyl]urea]
% inhibition (NHE3 [1]): C (>70%) | IC50 (NHE3 [1]): 100 to 1000 nM | % inhibition (NHE3 [2]): B (40-70%) | IC50 (NHE3 [2]): 100 to 1000 nM
